Test results as given in patent US11767564B2, “Use of SDHA as a prognostic marker and therapeutic target in uveal melanoma” (Board of Regents, The University of Texas System, priority 2017, dated 2023).

Assays:
[1] = system: monosomy 3 and disomy 3 cells; experiment: Percent cell survival with SDHA and/or MIF inhibitors; format: cell-based; conditions: simultaneous 20 nM SDHA siRNA and 10 or 25 μM ISO-1; both cell lines (monosomy 3, disomy 3); FIG. 7B
Excerpt: FIGS. 7A-7B: (FIG. 7A) Survival rate of uveal melanoma predicted using TCGA data. SDHA and MIF expression both above median is associated with lowest survival rate. SDHA and MIF both below median is associated with highest survival rate. SDHA below median and MIF above median expression is associated with the second lowest survival rate (p<0.001). (FIG. 7B) In vitro validation of association of SDHA and MIF expression with uveal melanoma cell survival.
Accordingly, the survival rate of uveal melanoma was predicted using TCGA data of SDHA and/or MIF expression. SDHA and MIF expression both above median was associated with lowest survival rate (FIG. 7A). On the other hand, SDHA and MIF both below median was associated with highest survival rate. Thus, both SDHA and MIF expression correlate with survival rate of uveal melanoma patients and may be used for prognosis. The association of SDHA and MID with uveal melanoma survival rate was validated by measuring percent cell survival in monosomy 3 and disomy 3 cells treated with SHDA and/or MIF inhibitors. SDHA was inhibited by 20 nM siRNA and MIF was inhibited by 10 or 25 μM ISO-1.

[2] = system: monosomy 3 uveal melanoma cell lines; experiment: Cell survival analysis with OXPHOS inhibitor IACS-10759; format: cell-based
Method: Cell survival analysis with monosomy and disomy 3 uveal melanoma cells in presence and absence of oxidative phosphorylation (OXPHOS) inhibitor, IACS-10759, was performed. Cells were cultured under ambient oxygen or 1% oxygen. Mitotracker Red dye staining was used to assay the extent of active mitochondria in monosomy 3 and disomy 3 cells. The percent cell survival of uveal melanoma cells treated with increasing concentrations of OXPHOS inhibitor, IACS-10759, was determined.

Row | SMILES | percent cell survival [1] | percent cell survival, resistance to inhibitor ([2]; monosomy 3 lines under hypoxic conditions (1% oxygen) or in galactose media) | percent cell survival, resistance to inhibitor ([2]; three monosomy 3 UM cell lines compared to three lines with normal chromosome 3 copy number, increasing concentrations)
1 | COC(=O)CC1CC(c2ccc(O)cc2)=NO1 (stereo not drawn) [ISO-1] | highest decrease in percent cell survival |  | 
2 | Cc1nc(-c2nc(-c3ccc(OC(F)(F)F)cc3)no2)nn1Cc1cccc(N2CCC(S(C)(=O)=O)CC2)c1 [IACS-10759] |  | resistance diminishes | more resistant to IACS-10759
